The subject of one series is WM164 melanoma cells. Kind of series: Confocal immunofluorescent microscopy of microtubule networks. It is filed as cell-based, human. The conditions noted are these: 100 nM, 18 h.
The test system of a further series is A375, M14, and RPMI7951. Kind of series: Cytotoxic activity against three human malignant melanoma cell lines. The conditions noted are these: read-out: IC50 (approximate, three melanoma cell lines).
Another series addresses purified tubulin (Sus scrofa, UniProt P02550+P02554). Briefly: Cell-free microtubule polymerization assay. It is filed as biochemical, porcine. The conditions noted are these: tubulin 3.33 mg/mL, absorbance 340 nm, 37 °C, 50 min.
The test system of the next series is A375 xenograft. Kind of series: A375 melanoma xenograft model in nude mice. The format is in vivo. The conditions noted are these: for apoptosis in tumors (cleaved caspase 3 IHC): IHC staining.
The test system of the next series is PC-3/TxR xenograft. Kind of series: Paclitaxel resistant PC-3/TxR prostate cancer xenograft model in nude mice. The format is in vivo. The conditions noted are these: for effect on tumor growth (in words): vs vehicle.
The test system of a further series is PC-3 xenograft. The conditions noted are these: nude mice.
Another series concerns RPMI7951. Kind of series: Wound healing assay, RPMI7951 cells. The format is cell-based, human. The conditions noted are these: 18 h, untreated control 71.8%.

The IC50 is the concentration at which inhibition is half-maximal.

Sequence of purified tubulin (P02554 whole entry): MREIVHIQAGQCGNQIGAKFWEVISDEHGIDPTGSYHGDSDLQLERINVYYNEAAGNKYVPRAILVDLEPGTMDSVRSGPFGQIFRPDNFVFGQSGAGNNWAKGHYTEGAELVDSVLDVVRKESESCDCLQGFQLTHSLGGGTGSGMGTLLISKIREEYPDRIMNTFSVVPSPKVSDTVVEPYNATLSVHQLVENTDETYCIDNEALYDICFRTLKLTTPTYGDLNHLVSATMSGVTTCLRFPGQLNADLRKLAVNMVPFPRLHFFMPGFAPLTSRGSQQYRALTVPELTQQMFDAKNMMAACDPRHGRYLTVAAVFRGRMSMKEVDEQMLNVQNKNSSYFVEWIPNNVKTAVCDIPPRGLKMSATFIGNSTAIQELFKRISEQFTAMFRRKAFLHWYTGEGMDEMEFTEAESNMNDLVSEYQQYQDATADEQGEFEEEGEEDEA
Sequence of purified tubulin (P02550 whole entry): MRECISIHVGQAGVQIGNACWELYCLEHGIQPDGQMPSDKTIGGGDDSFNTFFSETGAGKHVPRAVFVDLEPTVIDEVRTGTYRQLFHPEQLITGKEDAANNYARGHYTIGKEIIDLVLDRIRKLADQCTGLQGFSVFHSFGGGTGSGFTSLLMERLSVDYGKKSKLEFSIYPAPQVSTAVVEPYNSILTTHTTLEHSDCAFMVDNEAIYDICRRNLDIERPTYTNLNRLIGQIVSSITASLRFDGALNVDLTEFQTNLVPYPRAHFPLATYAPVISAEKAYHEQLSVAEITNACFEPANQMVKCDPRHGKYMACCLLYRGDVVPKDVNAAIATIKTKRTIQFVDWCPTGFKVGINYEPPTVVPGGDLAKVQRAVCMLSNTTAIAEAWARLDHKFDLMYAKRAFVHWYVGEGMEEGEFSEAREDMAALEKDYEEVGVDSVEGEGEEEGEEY

Consider `CC(=O)O[C@@]12CO[C@@H]1C[C@H](O)[C@@]1(C)C(=O)[C@H](O)C3=C(C)[C@@H](OC(=O)[C@H](O)[C@@H](NC(=O)OC(C)(C)C)c4ccccc4)C[C@@](O)([C@@H](OC(=O)c4ccccc4)[C@H]21)C3(C)C` [docetaxel, reference compound], for which the “effect on microtubule networks” value in the series on WM164 melanoma cells is “dense tubulin accretion, representative of aggressive polymerization”.

With `COc1ccc2c(c1)OCCN2c1nc(Cl)nc2ncccc12` [compound 19, 4-(2-Chloropyrido[2,3-d]pyrimidin-4-yl)-7-methoxy-3,4-dihydro-2H-benzo[b][1,4]oxazine], in the series on A375, M14, and RPMI7951, the IC50 amounted to 298 nM.

With `CC(=O)O[C@H]1C(=O)[C@@]2(C)[C@H]([C@H](OC(=O)c3ccccc3)[C@]3(O)C[C@H](OC(=O)[C@H](O)[C@@H](NC(=O)c4ccccc4)c4ccccc4)C(C)=C1C3(C)C)[C@]1(OC(C)=O)CO[C@@H]1C[C@@H]2O` [paclitaxel, reference compound], at purified tubulin, the “effect on tubulin polymerization” value was “greatest polymerization”. For the same compound, in the series on A375 xenograft, the “microvessel density in tumors (CD31 staining)” value (from here on “microvessel density in tumors”) was “less microvessel density” and the “apoptosis in tumors (cleaved caspase 3 IHC)” value (from here on “apoptosis in tumors”) is listed as “increase in the number of cells undergoing apoptosis”. In the series with PC-3/TxR xenograft, the mouse body weight entry was “began to drop considerably after 2 weeks of treatment” and the “effect on tumor growth (in words)” value is “no difference in tumor growth”. Besides, the “susceptibility of nonresistant tumors to treatment” value in the series with PC-3 xenograft is “highly susceptible”.

Turning to `COc1cc2c(c(OC)c1OC)-c1ccc(OC)c(=O)cc1[C@@H](NC(C)=O)CC2` [colchicine], in the series on RPMI7951, the “wound closure, RPMI7951, 5 nM” value is listed as “a significant decrease in migration was not observed”.

With `COc1ccc(N(C)c2nc(Cl)nc3ncccc23)cc1OC` [21a, 2-Chloro-N-(3,4-dimethoxyphenyl)-N-methylpyrido[2,3-d]-pyrimidin-4-amine], the IC50 with A375, M14, and RPMI7951 amounted to 45 nM.

With `COc1ccc2c(c1)CCCN2c1nc(Cl)nc2ccoc12` [6a, 2-Chloro-4-(6-methoxy-3,4-dihydroquinolin-1(2H)-yl)furo[3,2-d]pyrimidine], the “effect on tubulin polymerization” value on purified tubulin is “effectively inhibited tubulin polymerization in a dose-dependent manner”. Moreover, in the series on A375 xenograft, the “microvessel density in tumors” value is “less microvessel density” and the “apoptosis in tumors” value is given as “increase in the number of cells undergoing apoptosis”. In addition, the IC50 in the series on A375, M14, and RPMI7951 was approximately 3 nM.

For the compound `COc1ccc2c(c1)C(O)CCN2c1nc(Cl)nc2ncccc12` (stereo not drawn) [compound 17, 1-(2-Chloropyrido[2,3-d]pyrimidin-4-yl)-6-methoxy-1,2,3,4-tetrahydroquinolin-4-ol], the IC50 with A375, M14, and RPMI7951 is approximately 30 nM.

As for `COc1ccc2c(c1)CCCN2c1nc(Cl)nc2ncccc12` [4a, 2-Chloro-4-(6-methoxy-3,4-dihydroquinolin-1(2H)-yl)pyrido-[2,3-d]pyrimidine], the “effect on tubulin polymerization” value on purified tubulin is “effectively inhibited tubulin polymerization in a dose-dependent manner”. In addition, the “effect on microtubule networks” value in the series on WM164 melanoma cells was “causes fragmentation of the microtubules, decreases polymeric tubulin filaments, and increases cytoplasmic soluble tubulin”. In the series on A375 xenograft, the “microvessel density in tumors” value is “less microvessel density” and the “apoptosis in tumors” value is recorded as “increase in the number of cells undergoing apoptosis”. In addition, in the series on PC-3/TxR xenograft, the “effect on tumor growth (in words)” value is listed as “significant decrease in tumor volume”. Besides, the IC50 in the series on A375, M14, and RPMI7951 was approximately 6 nM.

The values above are taken from paper PMC5912893 (Journal of medicinal chemistry, 2018).
